# In patent US8772480B2, “Inhibitors of PI3 kinase and/or mTOR” (priority 2009, dated 2014):
# Like-named read-outs stand apart in the source and are kept apart here.
# Experiments:
# [1] = molecular target: human mutant B-raf (HuBraf V600E) (Homo sapiens (Human), UniProt P15056, V600E); settings: at 10 μM compound concentration; POC = 100 − percent inhibition
# Experimental: B-Raf Homogenous Time Resolved Fluorescence (HTRF) Kinase Assay
# The final concentration of the kinase reaction buffer is 50 mM Tris-HCl pH 7.5, 10 mM MgCl2, 0.5% glucose, 0.5 mM DTT, 0.01% BSA. […] The detection reaction proceeds for one hour and is read on a RubyStar (BMG Labtech, Durham, N.C.) counter. IC50s for the test compounds are generated using Excel-XLfit software. For single concentration percent of control (POC;=100−percent inhibition) assays, compounds were assayed as above at a single test concentration of 10 M test compound.
# [2] = test system: phosphorylation of Akt at Serine 473 in U87 MG cells; assay: cells; settings: Homo sapiens, U-87 MG, 2 h
# PI3Kα = PI3Kα (Homo sapiens (Human), UniProt P42336); settings: read-out: PI3Kα AlphaScreen ® Ki
# [3] = read-out: U87Cell IC50, pAkt (Ser 473), U87 MG cells, two hours with compound
# human mutant B-raf (HuBraf V600E), sequence (P15056 whole entry V600E): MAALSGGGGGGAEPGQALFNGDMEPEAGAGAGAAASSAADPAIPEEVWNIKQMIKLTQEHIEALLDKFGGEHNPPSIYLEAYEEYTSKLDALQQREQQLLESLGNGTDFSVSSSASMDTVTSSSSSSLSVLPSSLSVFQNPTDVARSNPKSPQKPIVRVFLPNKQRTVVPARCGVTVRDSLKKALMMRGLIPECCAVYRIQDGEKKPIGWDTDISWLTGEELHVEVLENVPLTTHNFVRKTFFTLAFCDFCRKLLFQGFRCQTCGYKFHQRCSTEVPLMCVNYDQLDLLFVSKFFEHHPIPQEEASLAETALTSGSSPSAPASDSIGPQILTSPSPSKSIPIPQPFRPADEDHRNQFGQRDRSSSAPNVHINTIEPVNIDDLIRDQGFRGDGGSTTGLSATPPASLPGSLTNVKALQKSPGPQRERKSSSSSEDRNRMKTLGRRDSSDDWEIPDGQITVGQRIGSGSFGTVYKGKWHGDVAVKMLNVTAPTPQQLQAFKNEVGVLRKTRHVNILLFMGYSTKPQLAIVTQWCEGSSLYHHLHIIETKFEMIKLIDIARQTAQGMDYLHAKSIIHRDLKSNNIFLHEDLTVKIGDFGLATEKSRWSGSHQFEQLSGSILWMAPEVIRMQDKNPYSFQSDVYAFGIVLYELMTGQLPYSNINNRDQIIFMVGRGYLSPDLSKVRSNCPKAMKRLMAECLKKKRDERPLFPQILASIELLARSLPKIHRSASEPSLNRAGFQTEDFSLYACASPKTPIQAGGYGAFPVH
# PI3Kα, sequence (P42336 whole entry): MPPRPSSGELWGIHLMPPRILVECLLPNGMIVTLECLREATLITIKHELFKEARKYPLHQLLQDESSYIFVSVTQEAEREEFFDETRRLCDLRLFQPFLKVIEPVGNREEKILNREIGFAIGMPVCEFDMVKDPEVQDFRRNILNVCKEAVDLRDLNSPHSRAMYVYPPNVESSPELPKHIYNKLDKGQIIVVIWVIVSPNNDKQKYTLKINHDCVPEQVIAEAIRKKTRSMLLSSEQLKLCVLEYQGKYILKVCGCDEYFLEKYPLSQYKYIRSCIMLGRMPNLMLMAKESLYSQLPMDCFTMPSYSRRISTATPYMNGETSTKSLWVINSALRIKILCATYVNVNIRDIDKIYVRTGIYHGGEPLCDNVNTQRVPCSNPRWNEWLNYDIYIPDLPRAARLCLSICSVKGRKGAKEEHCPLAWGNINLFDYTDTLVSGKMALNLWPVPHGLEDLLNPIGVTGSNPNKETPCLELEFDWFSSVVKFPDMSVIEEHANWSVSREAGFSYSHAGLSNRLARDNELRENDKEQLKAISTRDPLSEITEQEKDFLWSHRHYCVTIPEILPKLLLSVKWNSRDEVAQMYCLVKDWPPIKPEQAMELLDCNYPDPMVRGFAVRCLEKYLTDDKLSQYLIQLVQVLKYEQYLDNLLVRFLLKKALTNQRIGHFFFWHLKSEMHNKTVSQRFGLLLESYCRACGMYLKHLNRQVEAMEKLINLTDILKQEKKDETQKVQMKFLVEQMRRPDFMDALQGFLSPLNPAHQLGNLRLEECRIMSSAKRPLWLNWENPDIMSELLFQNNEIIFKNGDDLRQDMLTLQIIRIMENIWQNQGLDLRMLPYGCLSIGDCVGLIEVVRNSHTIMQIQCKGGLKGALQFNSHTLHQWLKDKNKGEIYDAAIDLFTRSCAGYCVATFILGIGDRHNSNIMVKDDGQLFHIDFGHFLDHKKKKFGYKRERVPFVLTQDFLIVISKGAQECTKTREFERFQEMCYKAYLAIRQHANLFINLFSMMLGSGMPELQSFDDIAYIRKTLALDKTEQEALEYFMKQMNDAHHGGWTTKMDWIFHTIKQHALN
# PI3Kα, sequence (P27986 whole entry partner): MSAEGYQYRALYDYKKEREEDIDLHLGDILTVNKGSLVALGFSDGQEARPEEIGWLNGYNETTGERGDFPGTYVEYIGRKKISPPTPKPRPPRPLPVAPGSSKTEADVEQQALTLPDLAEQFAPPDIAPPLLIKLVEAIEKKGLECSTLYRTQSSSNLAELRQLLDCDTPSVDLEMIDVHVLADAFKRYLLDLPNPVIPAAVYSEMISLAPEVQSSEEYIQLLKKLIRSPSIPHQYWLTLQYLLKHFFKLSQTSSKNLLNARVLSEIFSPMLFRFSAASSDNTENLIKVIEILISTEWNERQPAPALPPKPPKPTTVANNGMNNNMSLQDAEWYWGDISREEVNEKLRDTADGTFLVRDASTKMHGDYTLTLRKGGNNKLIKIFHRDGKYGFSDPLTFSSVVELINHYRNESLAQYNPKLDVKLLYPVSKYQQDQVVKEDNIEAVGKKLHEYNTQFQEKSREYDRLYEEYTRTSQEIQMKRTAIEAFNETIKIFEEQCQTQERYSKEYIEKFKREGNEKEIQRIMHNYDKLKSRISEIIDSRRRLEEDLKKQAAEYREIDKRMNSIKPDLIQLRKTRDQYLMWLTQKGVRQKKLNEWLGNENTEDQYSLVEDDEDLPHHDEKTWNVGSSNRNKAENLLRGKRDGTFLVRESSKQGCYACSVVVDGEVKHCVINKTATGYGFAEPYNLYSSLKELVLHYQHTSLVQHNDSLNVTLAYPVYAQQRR
structure (smiles),measurement,setting,value
"COc1cnc(Nc2ccc(OC)nc2)c(-c2nc(C)nc(N)n2)c1 [Example 33, 4-(5-Methoxy-2-(6-Methoxypyridin-3-Ylamino)Pyridin-3-yl)-6-Methyl-1,3,5-Triazin-2-Amine]",Mutant B-raf HTRF Assay POC Mean n = 2,[1],94% of Control (POC)
"COc1ccc(Nc2ncc(C)cc2-c2nc(C)nc(N)n2)cn1 [Example 31, 4-(2-(6-Methoxypyridin-3-Ylamino)-5-Methylpyridin-3-yl)-6-Methyl-1,3,5-Triazin-2-Amine]",Mutant B-raf HTRF Assay POC Mean n = 2,[1],97% of Control (POC)
"Cc1nc(N)nc(-c2cccnc2Nc2cccc3[nH]ncc23)n1 [Example 24, N-(3-(4-Amino-6-Methyl-1,3,5-Triazin-2-yl)Pyridin-2-yl)-1H-Indazol-4-Amine]",Mutant B-raf HTRF Assay POC Mean n = 2,[1],94% of Control (POC)
"COc1ccc(Nc2ncc(CN3CCNCC3)cc2-c2nc(C)nc(N)n2)cn1 [Example 41, 4-(2-(6-methoxypyridin-3-ylamino)-5-(piperazin-1-ylmethyl)pyridin-3-yl)-6-methyl-1,3,5-triazin-2-amine]",Mutant B-raf HTRF Assay POC Mean n = 2,[1],96% of Control (POC)
"COc1ccc(Nc2ncc(CN3CCN(S(C)(=O)=O)CC3)cc2-c2nc(C)nc(N)n2)cn1 [Example 35, 4-(2-(6-methoxypyridin-3-ylamino)-5-((4-(methylsulfonyl)piperazin-1-yl)methyl)pyridin-3-yl)-6-methyl-1,3,5-triazin-2-amine]",Mutant B-raf HTRF Assay POC Mean n = 2,[1],98% of Control (POC)
"COc1ccc(Nc2ncccc2-c2nc(C)nc(N)n2)cn1 [Example 25, 4-(2-(6-Methoxypyridin-3-Ylamino)Pyridin-3-yl)-6-Methyl-1,3,5-Triazin-2-Amine]",Mutant B-raf HTRF Assay POC Mean n = 2,[1],95% of Control (POC)
"COc1ncc(Nc2ncc(CN3CCN(S(C)(=O)=O)CC3C(F)(F)F)cc2-c2nc(C)nc(N)n2)cc1F (centres unmarked) [Example 313, 4-(2-(5-Fluoro-6-Methoxypyridin-3-Ylamino)-5-((4-(Methylsulfonyl)-2-(Trifluoromethyl)Piperazin-1-yl)Methyl)Pyridin-3-yl)-6-Methyl-1,3,5-Triazin-2-Amine]",IC50,[2]; [3],> 10 µM
same,Ki,PI3Kα,0.007 µM
"COc1ccc(Nc2ncc(-c3ccc(OC)nc3)cc2-c2nc(C)nc(N)n2)cn1 [Example 169, 5-(4-Amino-6-Methyl-1,3,5-Triazin-2-yl)-6′-Methoxy-N-(6-Methoxypyridin-3-yl)-3,3′-Bipyridin-6-Amine]",IC50,[2]; [3],0.105 µM
same,Ki,PI3Kα,0.017 µM
"Cc1nc(-c2cccnc2Nc2cccc3[nH]ccc23)c2nc[nH]c2n1 [Example 56, N-(3-(2-methyl-9H-purin-6-yl)pyridin-2-yl)-1H-indol-4-amine]",Mutant B-raf HTRF Assay POC Mean n = 2,[1],58% of Control (POC)
"COc1ncc(Nc2ncc(C(C)N3CCN(S(C)(=O)=O)CC3)nc2-c2cc(N)nc(C)n2)cc1F (centres unmarked) [Example 283, 6-(3-(5-Fluoro-6-Methoxypyridin-3-Ylamino)-6-(1-(4-(Methylsulfonyl)Piperazin-1-yl)Ethyl)Pyrazin-2-yl)-2-Methylpyrimidin-4-Amine]",IC50,[2]; [3],0.004 µM
same,Ki,PI3Kα,0.003 µM
"COc1ccc(Nc2ncc(N3CC[C@H](CO)C3)cc2-c2nc(C)nc3[nH]cnc23)cn1 [Example 204, ((3S)-1-(6-((6-Methoxy-3-Pyridinyl)Amino)-5-(2-Methyl-9H-Purin-6-yl)-3-Pyridinyl)-3-Pyrrolidinyl)Methanol]",IC50,[2]; [3],0.434 µM
same,Ki,PI3Kα,0.04 µM
"COc1ccc(Nc2ncc(CN3CC(O)C3)cc2-c2nc(C)nc(N)n2)cn1 [Example 229, 1-((5-(4-Amino-6-Methyl-1,3,5-Triazin-2-yl)-6-(6-Methoxypyridin-3-Ylamino)Pyridin-3-yl)Methyl)Azetidin-3-ol]",IC50,[2]; [3],0.276 µM
same,Ki,PI3Kα,0.059 µM
"Cc1nc(-c2cccnc2Nc2cnc(Cl)c(NS(C)(=O)=O)c2)c2nc[nH]c2n1 [Example 338, N-(2-Chloro-5-(3-(2-Methyl-9H-Purin-6-yl)Pyridin-2-Ylamino)Pyridin-3-yl)Methanesulfonamide]",IC50,[2]; [3],0.046 µM
same,Ki,PI3Kα,0.005 µM
"COc1ccc(Nc2ncc(CNc3ccccc3)cc2-c2nc(C)nc3[nH]cnc23)cn1 [Example 83, N-(6-methoxypyridin-3-yl)-3-(2-methyl-9H-purin-6-yl)-5-((phenylamino)methyl)pyridin-2-amine]",IC50,[2]; [3],0.7 µM
same,Ki,PI3Kα,0.045 µM
"COc1ncc(Nc2ncc(CN3CCN(S(C)(=O)=O)C[C@@H]3C)cc2-c2nc(C)nc(N)n2)cn1 [Example 319, (S)-4-(2-(2-Methoxypyrimidin-5-Ylamino)-5-((2-Methyl-4-(Methylsulfonyl)Piperazin-1-yl)Methyl)Pyridin-3-yl)-6-Methyl-1,3,5-Triazin-2-Amine]",IC50,[2]; [3],0.052 µM
same,Ki,PI3Kα,0.021 µM
"COc1cnc(Nc2cnc(Cl)c(N)c2)c(-c2nc(C)nc(N)n2)c1 [Example 368, N5-(3-(4-Amino-6-Methyl-1,3,5-Triazin-2-yl)-5-Methoxypyridin-2-yl)-2-Chloropyridine-3,5-Diamine]",IC50,[2]; [3],0.117 µM
same,Ki,PI3Kα,0.27 µM
"COc1ncc(Nc2ncc(CN3CCOCC3)cc2-c2nc(C)nc(N)n2)cc1NS(C)(=O)=O [Example 337, N-(5-(3-(4-Amino-6-Methyl-1,3,5-Triazin-2-yl)-5-(Morpholinomethyl)Pyridin-2-Ylamino)-2-Methoxypyridin-3-yl)Methanesulfonamide]",IC50,[2]; [3],0.021 µM
same,Ki,PI3Kα,0.098 µM
"COc1ccc(Nc2nc(N)ncc2-c2nc(C)nc(N)n2)cn1 [Example 118, 5-(4-amino-6-methyl-1,3,5-triazin-2-yl)-N4-(6-methoxypyridin-3-yl)pyrimidine-2,4-diamine]",IC50,[2]; [3],0.172 µM
same,Ki,PI3Kα,0.113 µM
"COc1ncc(Nc2ncc(C3(O)CC3)cc2-c2nc(C)nc(N)n2)cc1F [Example 298, 1-(5-(4-Amino-6-Methyl-1,3,5-Triazin-2-yl)-6-(5-Fluoro-6-Methoxypyridin-3-Ylamino)Pyridin-3-yl)Cyclopropanol]",IC50,[2]; [3],0.023 µM
same,Ki,PI3Kα,0.004 µM
"COc1ncc(Nc2nc(C)ccc2-c2nc(C)nc(N)n2)cc1F [Example 197, 4-(2-(5-Fluoro-6-Methoxypyridin-3-Ylamino)-6-Methylpyridin-3-yl)-6-Methyl-1,3,5-Triazin-2-Amine]",IC50,[2]; [3],0.211 µM
same,Ki,PI3Kα,0.033 µM
"Cc1nc(N)nc(-c2cc(Cl)cnc2NC2CCOCC2)n1 [Example 188, 4-(5-Chloro-2-(Tetrahydro-2H-Pyran-4-Ylamino)Pyridin-3-yl)-6-Methyl-1,3,5-Triazin-2-Amine]",IC50,[2]; [3],> 10 µM
same,Ki,PI3Kα,2.08 µM
"COc1ccc(Nc2ncc(C(C)N3CCN(S(C)(=O)=O)CC3)nc2-c2cc(N)nc(C)n2)cn1 (centres unmarked) [Example 286, 6-(3-(6-Methoxypyridin-3-Ylamino)-6-(1-(4-(Methylsulfonyl)Piperazin-1-yl)Ethyl)Pyrazin-2-yl)-2-Methylpyrimidin-4-Amine]",IC50,[2]; [3],0.111 µM
same,Ki,PI3Kα,0.011 µM
"COc1ccc(Nc2ncc(C3=CCNCC3)cc2-c2nc(C)nc(N)n2)cn1 [Example 249, 4-(2-(6-Methoxypyridin-3-Ylamino)-5-(1,2,3,6-Tetrahydropyridin-4-yl)Pyridin-3-yl)-6-Methyl-1,3,5-Triazin-2-Amine]",IC50,[2]; read-out: U87Cell IC50,0.088 µM
same,Ki,PI3Kα,0.021 µM
"COc1ccc(Nc2ncc(N3CCC(O)C3)cc2-c2nc(C)nc3[nH]cnc23)cn1 (centres unmarked) [Example 98, 1-(6-(6-Methoxypyridin-3-Ylamino)-5-(2-Methyl-9H-Purin-6-yl)Pyridin-3-yl)Pyrrolidin-3-ol]",IC50,[2]; [3],0.297 µM
same,Ki,PI3Kα,0.079 µM
"Cc1nc(N)nc(-c2cc(CN3CCN(S(C)(=O)=O)C[C@@H]3C)cnc2Nc2ccc(Cl)nc2)n1 [Example 318, (S)-4-(2-(6-Chloropyridin-3-Ylamino)-5-((2-Methyl-4-(Methylsulfonyl)Piperazin-1-yl)Methyl)Pyridin-3-yl)-6-Methyl-1,3,5-Triazin-2-Amine]",IC50,[2]; [3],0.044 µM
same,Ki,PI3Kα,0.032 µM
"COc1ncc(Nc2ncc([C@@H](C)N3CCOCC3)cc2-c2nc(C)nc(N)n2)cc1F (single isomer, unassigned) [Example 291]",IC50,[2]; [3],0.007 µM
same,Ki,PI3Kα,0.037 µM
"COc1ccc(Nc2ncc(CNCCO)cc2-c2nc(C)nc(N)n2)cn1 [Example 225, 2-((5-(4-Amino-6-Methyl-1,3,5-Triazin-2-yl)-6-(6-Methoxypyridin-3-Ylamino)Pyridin-3-yl)Methylamino)Ethanol]",IC50,[2]; [3],0.275 µM
same,Ki,PI3Kα,0.135 µM
Cc1nc(N)nc(-c2cccnc2Nc2ccc(F)c(F)c2)n1 [Example 248],IC50,[2]; [3],2.29 µM
same,Ki,PI3Kα,0.442 µM
"Cc1nc(N)nc(-c2cc(C(C)N3CCOCC3)cnc2Nc2cnc(Cl)c(NS(=O)(=O)N(C)C)c2)n1 (centres unmarked) [Example 370, N-(5-(3-(4-Amino-6-Methyl-1,3,5-Triazin-2-yl)-5-(1-Morpholinoethyl)Pyridin-2-Ylamino)-2-Chloropyridin-3-yl)-N,N-Dimethylaminosulfamide]",IC50,[2]; [3],0.003 µM
same,Ki,PI3Kα,0.01 µM
"COc1ncc(Nc2ncc(C(C)NC(C)C)cc2-c2nc(C)nc(N)n2)cc1F (centres unmarked) [Example 299, 4-(2-(5-Fluoro-6-Methoxypyridin-3-Ylamino)-5-(1-(Isopropylamino)Ethyl)Pyridin-3-yl)-6-Methyl-1,3,5-Triazin-2-Amine]",IC50,[2]; [3],0.045 µM
same,Ki,PI3Kα,0.061 µM
"COc1ccc(Nc2ncc(-c3cncc(F)c3)cc2-c2nc(C)nc(N)n2)cn1 [Example 253, 5-(4-Amino-6-Methyl-1,3,5-Triazin-2-yl)-5′-Fluoro-N-(6-Methoxypyridin-3-yl)-3,3′-Bipyridin-6-Amine]",IC50,[2]; [3],0.28 µM
same,Ki,PI3Kα,0.012 µM
"CCS(=O)(=O)c1cnc(Nc2cnc(OC)c(F)c2)c(-c2nc(C)nc(N)n2)c1 [Example 303, 4-(5-(ethylsulfonyl)-2-(5-fluoro-6-methoxypyridin-3-ylamino)pyridin-3-yl)-6-methyl-1,3,5-triazin-2-amine]",IC50,[2]; [3],> 10 µM
same,Ki,PI3Kα,0.807 µM
"COc1ncc(Nc2ncc(C(C)(C)C(=O)O)cc2-c2nc(C)nc(N)n2)cc1F [Example 346, 2-(5-(4-Amino-6-Methyl-1,3,5-Triazin-2-yl)-6-(5-Fluoro-6-Methoxypyridin-3-Ylamino)Pyridin-3-yl)-2-Methylpropanoic Acid]",IC50,[2]; [3],> 10 µM
same,Ki,PI3Kα,0.377 µM
